{"source": "paper PMC5218480", "about": "(PLoS ONE, 2017)", "system": "MV-4-11 cells", "assay": "Gene expression microarray analysis (Affymetrix PrimeView) and GSEA", "assay_type": "cell-based, human", "parameters": "RFU PODN (11730768_x_at) / Fold change /veh PODN (11730768_x_at) / RFU LINC00158 (11744669_a_at) / Fold change /veh LINC00158 (11744669_a_at) / RFU DUSP10 (11751237_a_at) / Fold change /veh DUSP10 (11751237_a_at) / RFU ID3 (11757404_x_at) / Fold change /veh ID3 (11757404_x_at) / RFU PLEKHG5 (11737974_s_at) / Fold change /veh PLEKHG5 (11737974_s_at) / RFU LRRC4B (11730491_at) / Fold change /veh LRRC4B (11730491_at) / RFU GIMAP4 (11747438_a_at) / Fold change /veh GIMAP4 (11747438_a_at) / RFU KRT8 (11758183_x_at) / Fold change /veh KRT8 (11758183_x_at) / RFU CNN1 (11734310_a_at) / Fold change /veh CNN1 (11734310_a_at) / RFU VPS37D (11726825_at) / Fold change /veh VPS37D (11726825_at) / RFU C10orf10 (11716522_x_at) / Fold change /veh C10orf10 (11716522_x_at) / RFU KIR2DL2 /// KIR2DL4 /// KIR2DL5A /// KIR2DL5B /// KIR2DS1 /// KIR2DS2 /// KIR2DS3 /// KIR2DS4 /// KIR3DL3 /// KIR3DL3 /// KIR3DS1 (11738374_at) / Fold change /veh KIR2DL2 /// KIR2DL4 /// KIR2DL5A /// KIR2DL5B /// KIR2DS1 /// KIR2DS2 /// KIR2DS3 /// KIR2DS4 /// KIR3DL3 /// KIR3DL3 /// KIR3DS1 (11738374_at) / RFU C1QL1 (11718748_at) / Fold change /veh C1QL1 (11718748_at) / RFU TMPRSS4 (11747572_a_at) / Fold change /veh TMPRSS4 (11747572_a_at) / RFU HAMP (11756126_x_at) / Fold change /veh HAMP (11756126_x_at) / RFU RNFT2 (11725882_a_at) / Fold change /veh RNFT2 (11725882_a_at) / RFU NR4A2 (11747474_a_at) / Fold change /veh NR4A2 (11747474_a_at) / RFU ABCC12 (11746883_a_at) / Fold change /veh ABCC12 (11746883_a_at) / RFU TMEM136 (11760407_x_at) / Fold change /veh TMEM136 (11760407_x_at) / RFU CLDN22 /// WWC2 (11732394_at) / Fold change /veh CLDN22 /// WWC2 (11732394_at) / RFU HLA-DPB1 (11760878_x_at) / Fold change /veh HLA-DPB1 (11760878_x_at) / RFU SPINT1 (11716480_a_at) / Fold change /veh SPINT1 (11716480_a_at) / RFU GAP43 (11754022_s_at) / Fold change /veh GAP43 (11754022_s_at) / RFU A4GNT (11735810_at) / Fold change /veh A4GNT (11735810_at) / RFU PRB3 (11715151_x_at) / Fold change /veh PRB3 (11715151_x_at) / RFU TUBB4B (11761932_at) / Fold change /veh TUBB4B (11761932_at) / RFU CAPN14 (11732068_a_at) / Fold change /veh CAPN14 (11732068_a_at) / RFU TMCC2 (11721928_a_at) / Fold change /veh TMCC2 (11721928_a_at) / RFU IRGQ (11745062_a_at) / Fold change /veh IRGQ (11745062_a_at) / RFU FAM174B (11720279_a_at) / Fold change /veh FAM174B (11720279_a_at) / RFU TMPRSS4 (11748680_a_at) / Fold change /veh TMPRSS4 (11748680_a_at) / RFU FAM212B (11763350_a_at) / Fold change /veh FAM212B (11763350_a_at) / RFU PLEKHG5 (11743358_a_at) / Fold change /veh PLEKHG5 (11743358_a_at) / RFU ZSCAN30 (11745921_a_at) / Fold change /veh ZSCAN30 (11745921_a_at) / RFU CMKLR1 (11741424_a_at) / Fold change /veh CMKLR1 (11741424_a_at) / RFU LOC101060620 /// MAPK8IP1 (11723275_at) / Fold change /veh LOC101060620 /// MAPK8IP1 (11723275_at) / RFU SPTSSB (11747773_x_at) / Fold change /veh SPTSSB (11747773_x_at) / RFU PRSS12 (11739890_at) / Fold change /veh PRSS12 (11739890_at) / RFU BIN1 (11741810_x_at) / Fold change /veh BIN1 (11741810_x_at) / RFU WNT11 (11732464_a_at) / Fold change /veh WNT11 (11732464_a_at) / RFU C10orf10 (11716521_a_at) / Fold change /veh C10orf10 (11716521_a_at) / RFU C5orf56 (11738089_at) / Fold change /veh C5orf56 (11738089_at) / RFU CYB561 (11721691_x_at) / Fold change /veh CYB561 (11721691_x_at) / RFU ANKRD19P (11752326_a_at) / Fold change /veh ANKRD19P (11752326_a_at) / RFU OR2T12 /// OR2T33 /// OR2T8 (11738714_s_at) / Fold change /veh OR2T12 /// OR2T33 /// OR2T8 (11738714_s_at) / RFU VCAN (11748164_a_at) / Fold change /veh VCAN (11748164_a_at) / RFU JSRP1 (11732532_at) / Fold change /veh JSRP1 (11732532_at) / RFU KRTAP10-11 (11738290_x_at) / Fold change /veh KRTAP10-11 (11738290_x_at) / RFU MYO3A (11730013_a_at) / Fold change /veh MYO3A (11730013_a_at) / RFU EBF3 (11725865_a_at) / Fold change /veh EBF3 (11725865_a_at) / RFU CAMK2N1 (11719241_x_at) / Fold change /veh CAMK2N1 (11719241_x_at) / RFU C5orf56 (11738088_a_at) / Fold change /veh C5orf56 (11738088_a_at) / RFU OLFML3 (11715873_a_at) / Fold change /veh OLFML3 (11715873_a_at) / RFU LOC100653217 /// NTM (11731650_a_at) / Fold change /veh LOC100653217 /// NTM (11731650_a_at) / RFU MAPK11 (11762145_a_at) / Fold change /veh MAPK11 (11762145_a_at) / RFU FIZ1 (11724087_x_at) / Fold change /veh FIZ1 (11724087_x_at) / RFU OASL (11726364_x_at) / Fold change /veh OASL (11726364_x_at) / RFU SOX15 (11748057_x_at) / Fold change /veh SOX15 (11748057_x_at) / RFU CD79A (11719716_a_at) / Fold change /veh CD79A (11719716_a_at) / RFU HIST1H1D (11736915_at) / Fold change /veh HIST1H1D (11736915_at) / RFU CASKIN2 (11723855_a_at) / Fold change /veh CASKIN2 (11723855_a_at) / RFU LOC730098 (11760151_x_at) / Fold change /veh LOC730098 (11760151_x_at) / RFU OR4N2 (11742367_at) / Fold change /veh OR4N2 (11742367_at) / RFU PRRT2 (11749266_a_at) / Fold change /veh PRRT2 (11749266_a_at) / RFU SNX32 (11753110_a_at) / Fold change /veh SNX32 (11753110_a_at) / RFU CDHR5 (11726645_a_at) / Fold change /veh CDHR5 (11726645_a_at) / RFU RCAN1 (11760418_a_at) / Fold change /veh RCAN1 (11760418_a_at) / RFU FAM167A (11723789_a_at) / Fold change /veh FAM167A (11723789_a_at) / RFU FAM26E (11764081_at) / Fold change /veh FAM26E (11764081_at) / RFU ISYNA1 (11749810_s_at) / Fold change /veh ISYNA1 (11749810_s_at) / RFU ACY1 (11761880_at) / Fold change /veh ACY1 (11761880_at) / RFU 11764098_at / Fold change /veh 11764098_at / RFU SAMD14 (11745864_x_at) / Fold change /veh SAMD14 (11745864_x_at) / RFU NPB (11741838_a_at) / Fold change /veh NPB (11741838_a_at) / RFU TMPRSS6 (11731388_a_at) / Fold change /veh TMPRSS6 (11731388_a_at) / RFU KRTAP10-2 (11738614_at) / Fold change /veh KRTAP10-2 (11738614_at) / RFU ARHGAP8 /// PRR5-ARHGAP8 (11727945_x_at) / Fold change /veh ARHGAP8 /// PRR5-ARHGAP8 (11727945_x_at) / RFU KRTAP5-7 /// NADSYN1 (11734609_at) / Fold change /veh KRTAP5-7 /// NADSYN1 (11734609_at) / RFU RASL12 (11751679_a_at) / Fold change /veh RASL12 (11751679_a_at) / RFU CDKN2B (11736163_a_at) / Fold change /veh CDKN2B (11736163_a_at) / RFU PRF1 (11729649_at) / Fold change /veh PRF1 (11729649_at) / RFU, ZNF638 /// ZNF638-IT1 / Fold change vs veh, ZNF638 /// ZNF638-IT1 / RFU, PANK3 / Fold change vs veh, PANK3 / RFU, SH3YL1 / Fold change vs veh, SH3YL1 / RFU, ZEB2 / Fold change vs veh, ZEB2 / RFU, NRIP1 / Fold change vs veh, NRIP1 / RFU, PTTG1IP / Fold change vs veh, PTTG1IP / RFU, CAPN2 / Fold change vs veh, CAPN2 / RFU, MED14 / Fold change vs veh, MED14 / RFU, SNORA58 / Fold change vs veh, SNORA58 / RFU, C1orf63 / Fold change vs veh, C1orf63 / RFU, LRRFIP1 / Fold change vs veh, LRRFIP1 / RFU, NDUFAF7 / Fold change vs veh, NDUFAF7 / RFU, SLC12A2 / Fold change vs veh, SLC12A2 / RFU, IBTK / Fold change vs veh, IBTK / RFU, ESF1 / Fold change vs veh, ESF1 / Fold change vs veh, TMEM50B / RFU, TAOK1 / Fold change vs veh, TAOK1 / RFU, ACBD3 / Fold change vs veh, ACBD3 / RFU, TMA16 / Fold change vs veh, TMA16 / RFU, RWDD3 / Fold change vs veh, RWDD3 / RFU, BCAT1 / Fold change vs veh, BCAT1 / RFU, EDEM3 / Fold change vs veh, EDEM3 / RFU, TMEM33 / Fold change vs veh, TMEM33 / RFU, WDR75 / Fold change vs veh, WDR75 / RFU, AHCTF1 / Fold change vs veh, AHCTF1 / RFU, TFRC / Fold change vs veh, TFRC / RFU, ZDHHC17 / Fold change vs veh, ZDHHC17 / RFU, NOM1 / Fold change vs veh, NOM1 / RFU, ARL8B / Fold change vs veh, ARL8B / RFU, ZBTB11 / Fold change vs veh, ZBTB11 / RFU, TAMM41 / Fold change vs veh, TAMM41 / RFU, KIAA1704 /// LOC100996395 / Fold change vs veh, KIAA1704 /// LOC100996395 / RFU, ING1 / Fold change vs veh, ING1 / RFU, TRMT61B / Fold change vs veh, TRMT61B / RFU, FUBP3 / Fold change vs veh, FUBP3 / RFU, TP53 / Fold change vs veh, TP53 / RFU, TNKS2 / Fold change vs veh, TNKS2 / RFU, ZFP14 / Fold change vs veh, ZFP14 / RFU, ACTR2 / Fold change vs veh, ACTR2 / RFU, PPP3R1 / Fold change vs veh, PPP3R1 / RFU, PIK3R1 / Fold change vs veh, PIK3R1 / RFU, HNRNPA1 / Fold change vs veh, HNRNPA1 / RFU, RNF170 / Fold change vs veh, RNF170 / RFU, ZNF28 / Fold change vs veh, ZNF28 / RFU, RNGTT / Fold change vs veh, RNGTT / RFU, OGT / Fold change vs veh, OGT / RFU, BRD1 / Fold change vs veh, BRD1 / RFU, MARS / Fold change vs veh, MARS / RFU, ZNF655 / Fold change vs veh, ZNF655 / RFU, FAHD1 / Fold change vs veh, FAHD1 / RFU, BDP1 / Fold change vs veh, BDP1 / RFU, LRRCC1 / Fold change vs veh, LRRCC1 / RFU, ARID1A / Fold change vs veh, ARID1A / RFU, ZNF146 / Fold change vs veh, ZNF146 / RFU, ZNF330 / Fold change vs veh, ZNF330 / RFU, GPN3 / Fold change vs veh, GPN3 / RFU, C9orf123 / Fold change vs veh, C9orf123 / RFU, N4BP2L2 / Fold change vs veh, N4BP2L2 / RFU, ARFIP1 / Fold change vs veh, ARFIP1 / RFU, FAM179B / Fold change vs veh, FAM179B / RFU, BCL10 / Fold change vs veh, BCL10 / RFU, UHRF1BP1L / Fold change vs veh, UHRF1BP1L / RFU, BET1 / Fold change vs veh, BET1 / RFU, CNOT2 / Fold change vs veh, CNOT2 / RFU, ZNF268 / Fold change vs veh, ZNF268 / Fold change vs veh, ZNF507 / RFU, DGCR2 / Fold change vs veh, DGCR2 / RFU, WDSUB1 / Fold change vs veh, WDSUB1 / Fold change vs veh, HSP90B1 /// MIR3652 / RFU, ADSS / Fold change vs veh, ADSS / RFU, GK / Fold change vs veh, GK / RFU, ZNF148 / Fold change vs veh, ZNF148 / RFU, TAF9 / Fold change vs veh, TAF9 / RFU, SLC1A5 / Fold change vs veh, SLC1A5 / RFU, SLMO2 / Fold change vs veh, SLMO2 / RFU, ABCC4 / Fold change vs veh, ABCC4 / RFU, LOC101060439 /// RAP1B / Fold change vs veh, LOC101060439 /// RAP1B / RFU, RFX7 / Fold change vs veh, RFX7 / RFU, GTPBP10 / Fold change vs veh, GTPBP10 / RFU, CNEP1R1 / Fold change vs veh, CNEP1R1 / RFU, BIVM-ERCC5 /// ERCC5 / Fold change vs veh, BIVM-ERCC5 /// ERCC5 / RFU, ILF3 / Fold change vs veh, ILF3 / RFU 11762660_at / Fold change /veh 11762660_at / RFU VCAN (11757783_s_at) / Fold change /veh VCAN (11757783_s_at) / RFU DDX43 (11728927_at) / Fold change /veh DDX43 (11728927_at) / RFU KRT8 (11758188_x_at) / Fold change /veh KRT8 (11758188_x_at) / RFU NKD1 (11759106_at) / Fold change /veh NKD1 (11759106_at) / RFU SRD5A1 (11742802_a_at) / Fold change /veh SRD5A1 (11742802_a_at) / RFU TPSAB1 /// TPSB2 (11721975_s_at) / Fold change /veh TPSAB1 /// TPSB2 (11721975_s_at) / RFU GSTM3 (11746129_a_at) / Fold change /veh GSTM3 (11746129_a_at) / RFU IL23R (11737362_x_at) / Fold change /veh IL23R (11737362_x_at) / RFU TMEM51 (11727254_a_at) / Fold change /veh TMEM51 (11727254_a_at) / RFU PIWIL2 (11732686_x_at) / Fold change /veh PIWIL2 (11732686_x_at) / RFU ORM1 (11744905_x_at) / Fold change /veh ORM1 (11744905_x_at) / RFU CCDC152 (11743942_at) / Fold change /veh CCDC152 (11743942_at) / RFU ECM1 (11717891_a_at) / Fold change /veh ECM1 (11717891_a_at) / RFU IL23R (11748794_a_at) / Fold change /veh IL23R (11748794_a_at) / RFU TNFAIP8L3 (11732012_x_at) / Fold change /veh TNFAIP8L3 (11732012_x_at) / RFU MBOAT4 (11741988_at) / Fold change /veh MBOAT4 (11741988_at) / RFU 11764193_at / Fold change /veh 11764193_at / RFU TMEM53 (11763286_at) / Fold change /veh TMEM53 (11763286_at) / RFU MAGEB2 (11727129_at) / Fold change /veh MAGEB2 (11727129_at) / RFU TMEM200A (11744735_a_at) / Fold change /veh TMEM200A (11744735_a_at) / RFU CCDC152 (11751479_a_at) / Fold change /veh CCDC152 (11751479_a_at) / RFU FAM211A (11726209_a_at) / Fold change /veh FAM211A (11726209_a_at) / RFU RGS16 (11746705_a_at) / Fold change /veh RGS16 (11746705_a_at) / RFU VCAN (11755009_s_at) / Fold change /veh VCAN (11755009_s_at) / RFU RHOB (11743442_s_at) / Fold change /veh RHOB (11743442_s_at) / RFU RGS16 (11720943_a_at) / Fold change /veh RGS16 (11720943_a_at) / RFU RGS16 (11720944_at) / Fold change /veh RGS16 (11720944_at) / RFU, VPS4B / Fold change vs veh, VPS4B / RFU, CREB1 / Fold change vs veh, CREB1 / RFU, DNAJC13 / Fold change vs veh, DNAJC13 / RFU, GNAQ / Fold change vs veh, GNAQ / RFU, CDK5R1 / Fold change vs veh, CDK5R1 / RFU, ZRANB3 / Fold change vs veh, ZRANB3 / RFU, CUL4A / Fold change vs veh, CUL4A / RFU, CCNY / Fold change vs veh, CCNY / RFU, UFL1 / Fold change vs veh, UFL1 / RFU, COG3 / Fold change vs veh, COG3 / RFU, DIAPH2 / Fold change vs veh, DIAPH2 / RFU, SKA2 / Fold change vs veh, SKA2 / RFU, AFF3 / Fold change vs veh, AFF3 / RFU, LMF1 / Fold change vs veh, LMF1 / RFU, IPO11 / Fold change vs veh, IPO11 / RFU, DFFB / Fold change vs veh, DFFB / RFU, FOXP1 / Fold change vs veh, FOXP1 / RFU, CARD8 / Fold change vs veh, CARD8 / RFU, STRN3 / Fold change vs veh, STRN3 / RFU, ADK / Fold change vs veh, ADK / RFU, RASSF2 / Fold change vs veh, RASSF2 / RFU, WIPF1 / Fold change vs veh, WIPF1 / RFU, LARP1B / Fold change vs veh, LARP1B / RFU, RASA1 / Fold change vs veh, RASA1 / RFU, RB1 / Fold change vs veh, RB1 / RFU, PPFIA1 / Fold change vs veh, PPFIA1 / RFU, MAT2A / Fold change vs veh, MAT2A / RFU, CCT5 / Fold change vs veh, CCT5 / RFU, WDR92 / Fold change vs veh, WDR92 / RFU, CUX1 / Fold change vs veh, CUX1 / RFU, TTC7A / Fold change vs veh, TTC7A / RFU, TMEM135 / Fold change vs veh, TMEM135 / RFU, DEPTOR / Fold change vs veh, DEPTOR / RFU, CPM / Fold change vs veh, CPM / RFU, DNAJB6 / Fold change vs veh, DNAJB6 / RFU, CACNA2D3 / Fold change vs veh, CACNA2D3 / RFU, DTX4 / Fold change vs veh, DTX4 / RFU, TFCP2 / Fold change vs veh, TFCP2 / RFU, GMCL1 /// GMCL1P1 / Fold change vs veh, GMCL1 /// GMCL1P1 / RFU, AEBP2 / Fold change vs veh, AEBP2 / RFU, SNHG1 /// SNORD22 /// SNORD25 /// SNORD26 /// SNORD27 /// SNORD28 /// SNORD29 /// SNORD31 / Fold change vs veh, SNHG1 /// SNORD22 /// SNORD25 /// SNORD26 /// SNORD27 /// SNORD28 /// SNORD29 /// SNORD31 / Fold change (Aza/veh), C12orf56 (ProbeSet 11735607_a_at) / Fold change (ACY-1035/veh), C12orf56 (ProbeSet 11735607_a_at) / Fold change (Aza/veh), FGFR1OP (ProbeSet 11751329_s_at) / Fold change (ACY-1035/veh), FGFR1OP (ProbeSet 11751329_s_at) / Fold change (Aza/veh), VPS36 (ProbeSet 11739960_a_at) / Fold change (ACY-1035/veh), VPS36 (ProbeSet 11739960_a_at) / RFU SYPL1 (11715823_x_at) / Fold change /veh SYPL1 (11715823_x_at) / RFU IGFBP7 (11715501_s_at) / Fold change /veh IGFBP7 (11715501_s_at) / RFU REEP3 (11722064_at) / Fold change /veh REEP3 (11722064_at) / RFU IGLL1 (11728026_x_at) / Fold change /veh IGLL1 (11728026_x_at): dose or concentration left out as unconfirmed", "details": "ProbeSet 11749477_a_at; LIST B", "data": [{"smiles": "Nc1ncn([C@@H]2O[C@H](CO)[C@@H](O)[C@H]2O)c(=O)n1", "note": "[azacitidine]", "values": [{"measurement": "Fold change vs veh, EDEM3", "result": 0.89}]}]}
